Laboratory results as given in patent US8802597B2, “Herbicidal pyrimidines” (E I du Pont de Nemours and Company, priority 2003, dated 2014).

Experiments:
Assay in all cases: Test G pre/postemergence
Format in all cases: in vivo
[1] = system: large crabgrass (Digitaria sanguinalis)
How it was run: (§1)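 Test chemicals in non-phytotoxic solvent with surfactant applied preemergence to sown seeds or nutlets and postemergence to plants 2–18 cm tall (1- to 4-leaf stage). Greenhouse-held 12–21 days, then visually rated against untreated controls on a 0 (no effect) to 100 (complete control) scale.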

[2] = system: common mallow (Malva sylvestris)
How it was run: as §1

[3] = system: annual bluegrass (Poa annua)
How it was run: as §1

[4] = system: black mustard (Brassica nigra)
How it was run: as §1

[5] = system: tropical spiderwort (Commelina benghalensis)
How it was run: as §1

[6] = system: pitted morningglory (Ipomoea lacunosa)
How it was run: as §1

[7] = system: green foxtail (Setaria viridis)
How it was run: as §1

[8] = system: prickly sida (Sida spinosa)
How it was run: as §1

[9] = system: barnyardgrass (Echinochloa crus-galli)
How it was run: as §1

[10] = system: southern sandbur (Cenchrus echinatus)
How it was run: as §1

[11] = system: johnsongrass (Sorghum halepense)
How it was run: as §1

[12] = system: itchgrass (Rottboellia cochinchinensis)
How it was run: as §1

[13] = system: Italian ryegrass (Lolium multiflorum)
How it was run: as §1

[14] = system: broadleaf signalgrass (Brachiaria platyphylla)
How it was run: as §1

[15] = Postemergence, 250 g ai/ha, scale 0 to 100
[16] = Postemergence, 16 g ai/ha, scale 0 to 100
[17] = Postemergence, 31 g ai/ha, scale 0 to 100
[18] = Postemergence, 62 g ai/ha, scale 0 to 100
[19] = Postemergence, 125 g ai/ha, scale 0 to 100
[20] = Preemergence, 16 g ai/ha, scale 0-100
[21] = Preemergence, 31 g ai/ha, scale 0-100
[22] = Preemergence, 62 g ai/ha, scale 0-100
[23] = Preemergence, 125 g ai/ha, scale 0-100
[24] = Preemergence, 250 g ai/ha, scale 0-100

Nc1nc(C2CC2)nc(C(=O)[O-])c1Cl.[Na+] [Compound 77, 6-amino-5-chloro-2-cyclopropyl-4-pyrimidinecarboxylic acid monosodium salt]
95: Plant response rating, Mallow [2, 15] | Plant response rating, Black Mustard [4, 24] | Plant response rating, Spiderwort [5, 22] | Plant response rating, Spiderwort [5, 23] | Plant response rating, Prickly Sida [8, 24] | Plant response rating, Johnsongrass [11, 24] | Plant response rating, Signalgrass [14, 24]
80: Plant response rating, Crabgrass, Large [1, 22] | Plant response rating, Mallow [2, 18] | Plant response rating, Mallow [2, 23] | Plant response rating, Mallow [2, 24] | Plant response rating, Prickly Sida [8, 15] | Plant response rating, Prickly Sida [8, 18] | Plant response rating, Prickly Sida [8, 19] | Plant response rating, Itchgrass [12, 15]
10: Plant response rating, Spiderwort [5, 16] | Plant response rating, Barnyardgrass [9, 17] | Plant response rating, Sandbur [10, 18] | Plant response rating, Johnsongrass [11, 20] | Plant response rating, Itchgrass [12, 21] | Plant response rating, Signalgrass [14, 21]
60: Plant response rating, Crabgrass, Large [1, 16] | Plant response rating, Black Mustard [4, 15] | Plant response rating, Black Mustard [4, 19] | Plant response rating, Black Mustard [4, 20] | Plant response rating, Black Mustard [4, 21] | Plant response rating, Spiderwort [5, 20] | Plant response rating, Morningglory [6, 17] | Plant response rating, Signalgrass [14, 19]
25: Plant response rating, Black Mustard [4, 16]
5: Plant response rating, Bluegrass [3, 22] | Plant response rating, Foxtail, Green [7, 21] | Plant response rating, Signalgrass [14, 20]
45: Plant response rating, Crabgrass, Large [1, 20] | Plant response rating, Crabgrass, Large [1, 21] | Plant response rating, Itchgrass [12, 22]
75: Plant response rating, Crabgrass, Large [1, 15] | Plant response rating, Crabgrass, Large [1, 18] | Plant response rating, Crabgrass, Large [1, 19] | Plant response rating, Mallow [2, 17] | Plant response rating, Spiderwort [5, 18] | Plant response rating, Prickly Sida [8, 17] | Plant response rating, Prickly Sida [8, 21] | Plant response rating, Barnyardgrass [9, 15] | Plant response rating, Barnyardgrass [9, 22] | Plant response rating, Johnsongrass [11, 22] | Plant response rating, Ryegrass, Italian [13, 24] | Plant response rating, Signalgrass [14, 22]
65: Plant response rating, Mallow [2, 16] | Plant response rating, Foxtail, Green [7, 22] | Plant response rating, Barnyardgrass [9, 19] | Plant response rating, Johnsongrass [11, 17] | Plant response rating, Johnsongrass [11, 21] | Plant response rating, Itchgrass [12, 18]
30: Plant response rating, Mallow [2, 20] | Plant response rating, Ryegrass, Italian [13, 18] | Plant response rating, Ryegrass, Italian [13, 19] | Plant response rating, Signalgrass [14, 17]
55: Plant response rating, Barnyardgrass [9, 21]
50: Plant response rating, Mallow [2, 22] | Plant response rating, Black Mustard [4, 18] | Plant response rating, Spiderwort [5, 17] | Plant response rating, Morningglory [6, 16] | Plant response rating, Barnyardgrass [9, 20] | Plant response rating, Signalgrass [14, 18]
20: Plant response rating, Bluegrass [3, 23] | Plant response rating, Sandbur [10, 21] | Plant response rating, Johnsongrass [11, 16] | Plant response rating, Ryegrass, Italian [13, 17]
100: Plant response rating, Spiderwort [5, 15] | Plant response rating, Spiderwort [5, 24] | Plant response rating, Morningglory [6, 15] | Plant response rating, Morningglory [6, 19] | Plant response rating, Morningglory [6, 22] | Plant response rating, Morningglory [6, 23] | Plant response rating, Morningglory [6, 24] | Plant response rating, Sandbur [10, 22] | Plant response rating, Sandbur [10, 23] | Plant response rating, Sandbur [10, 24]
90: Plant response rating, Crabgrass, Large [1, 24] | Plant response rating, Black Mustard [4, 23] | Plant response rating, Spiderwort [5, 19] | Plant response rating, Morningglory [6, 18] | Plant response rating, Morningglory [6, 21] | Plant response rating, Foxtail, Green [7, 24] | Plant response rating, Prickly Sida [8, 23] | Plant response rating, Barnyardgrass [9, 24] | Plant response rating, Itchgrass [12, 24] | Plant response rating, Signalgrass [14, 23]
35: Plant response rating, Foxtail, Green [7, 18] | Plant response rating, Sandbur [10, 19] | Plant response rating, Itchgrass [12, 17]
40: Plant response rating, Mallow [2, 21] | Plant response rating, Bluegrass [3, 15] | Plant response rating, Bluegrass [3, 19] | Plant response rating, Bluegrass [3, 24] | Plant response rating, Black Mustard [4, 17] | Plant response rating, Foxtail, Green [7, 15] | Plant response rating, Foxtail, Green [7, 19] | Plant response rating, Barnyardgrass [9, 18] | Plant response rating, Sandbur [10, 15] | Plant response rating, Ryegrass, Italian [13, 15] | Plant response rating, Ryegrass, Italian [13, 23]
70: Plant response rating, Crabgrass, Large [1, 17] | Plant response rating, Morningglory [6, 20] | Plant response rating, Prickly Sida [8, 16] | Plant response rating, Prickly Sida [8, 20] | Plant response rating, Johnsongrass [11, 18] | Plant response rating, Itchgrass [12, 19] | Plant response rating, Signalgrass [14, 15]
85: Plant response rating, Crabgrass, Large [1, 23] | Plant response rating, Mallow [2, 19] | Plant response rating, Black Mustard [4, 22] | Plant response rating, Spiderwort [5, 21] | Plant response rating, Foxtail, Green [7, 23] | Plant response rating, Prickly Sida [8, 22] | Plant response rating, Barnyardgrass [9, 23] | Plant response rating, Johnsongrass [11, 15] | Plant response rating, Johnsongrass [11, 19] | Plant response rating, Johnsongrass [11, 23] | Plant response rating, Itchgrass [12, 23]
0: Plant response rating, Bluegrass [3, 16] | Plant response rating, Bluegrass [3, 17] | Plant response rating, Bluegrass [3, 18] | Plant response rating, Bluegrass [3, 20] | Plant response rating, Bluegrass [3, 21] | Plant response rating, Foxtail, Green [7, 16] | Plant response rating, Foxtail, Green [7, 17] | Plant response rating, Foxtail, Green [7, 20] | Plant response rating, Barnyardgrass [9, 16] | Plant response rating, Sandbur [10, 16] | Plant response rating, Sandbur [10, 17] | Plant response rating, Sandbur [10, 20] | Plant response rating, Itchgrass [12, 16] | Plant response rating, Itchgrass [12, 20] | Plant response rating, Ryegrass, Italian [13, 16] | Plant response rating, Ryegrass, Italian [13, 20] | Plant response rating, Ryegrass, Italian [13, 21] | Plant response rating, Ryegrass, Italian [13, 22] | Plant response rating, Signalgrass [14, 16]
